We go through eleven molecules from ChEMBL document CHEMBL1201862, “PubChem BioAssay data set” (2004).

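In this assay, cells in 96-well plates receive the compound at five concentrations for 48 hours. Endpoints are linearly interpolated between the surrounding concentrations. GI50 marks 50% less growth.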 Active and inactive are the calls of the source. Cut-off read from the data, not from the text of the source: active = GI50 up to about 1.1 µM and inactive = higher.

Some test systems named below: T47D; SK-MEL-5; SNB-75; SR; K562; ACHN; SK-MEL-2; PC-3; SF-268; HOP-62; HT-29; RPMI-8226; A498; SK-MEL-28; SF-539; NCI-H23; MDA-N; Hs-578T; CAKI-1.
Common to all, as to test: NCI anticancer screen, dose series, 48 h

`CC1(C)C=C(S(=O)(=O)c2ccccc2)Oc2ccccc2O1`: the GI50 was 19.8 µM (inactive) with T47D; 15.4 µM (inactive) in the test on SK-MEL-5; 16.7 µM (inactive) in the test on SNB-75; 41.9 µM (inactive) in the test on SR; 29.8 µM (inactive) in the test on K562; 34.8 µM (inactive) with ACHN. In addition, the GI50 in the test on SK-MEL-2 was 52.4 µM (inactive); in the test with PC-3, 27.9 µM (inactive); in the test on SF-268 it was 61.1 µM (inactive); with HOP-62 it was > 100 µM (inactive); in the test on HT-29, 39.6 µM (inactive); in the test with RPMI-8226 it was 32.9 µM (inactive). Further, the GI50 in the test on A498 was 30.8 µM (inactive); in the test with SK-MEL-28, 41.7 µM (inactive); in the test on SF-539, 82.8 µM (inactive); in the test with NCI-H23, 41.3 µM (inactive); with MDA-N, 35.7 µM (inactive); with Hs-578T, 64.9 µM (inactive). In addition, the GI50 in the test on CAKI-1 is 69.2 µM (inactive).
Regarding `CS(=O)(=O)OC1CCN(C2(c3cccc(O)c3)CCCCC2)CC1`, the GI50 is 70.6 µM (inactive) with T47D; 43.5 µM (inactive) with SK-MEL-5; > 100 µM (inactive) in the test with SNB-75; 23.6 µM (inactive) in the test on SR; 39.6 µM (inactive) in the test on K562; > 100 µM (inactive) in the test on ACHN. In addition, the GI50 was > 100 µM (inactive) with SK-MEL-2; 33.6 µM (inactive) with PC-3; 71.3 µM (inactive) in the test with SF-268; 36.1 µM (inactive) in the test on HOP-62; 36.1 µM (inactive) in the test on HT-29; 20.7 µM (inactive) in the test with RPMI-8226. In addition, the GI50 in the test on A498 is > 100 µM (inactive); in the test on SK-MEL-28 it was 60.4 µM (inactive); in the test with SF-539 it was 27.4 µM (inactive); in the test with NCI-H23 it was 46.5 µM (inactive); in the test on MDA-N, 30.5 µM (inactive); in the test with Hs-578T it was > 100 µM (inactive). For the same molecule, the GI50 in the test with CAKI-1 was > 100 µM (inactive).
Consider `CN(C)CC1CCCc2ccccc2C1=O` (centres undefined), for which the GI50 was 7.73 µM (inactive) with T47D; 4.4 µM (inactive) with SK-MEL-5; 41.8 µM (inactive) in the test on SNB-75; 0.271 µM (active) in the test on SR; 0.323 µM (active) with K562; 1.75 µM (inactive) in the test with ACHN. The GI50 in the test with SK-MEL-2 is 2.02 µM (inactive); in the test with PC-3, 1.57 µM (inactive); with SF-268 it was 2.21 µM (inactive); in the test on HOP-62, 16.6 µM (inactive); in the test on HT-29 it was 1.82 µM (inactive); in the test on RPMI-8226 it was 0.0267 µM (active). Further, the GI50 in the test on A498 was 19.5 µM (inactive); with SK-MEL-28, 6.03 µM (inactive); in the test on SF-539, 4.79 µM (inactive); in the test on NCI-H23 it was 6.41 µM (inactive); in the test with MDA-N, 1.58 µM (inactive); in the test with Hs-578T, 3.93 µM (inactive). Further, in the test on CAKI-1, the GI50 is 1.93 µM (inactive).
For the molecule `Cn1c2c3c(F)c(F)ccc3nc-2cc2ccccc21`, the GI50 in the test with T47D is 0.582 µM (active); in the test on SK-MEL-5, 3.04 µM (inactive); in the test on SNB-75 it was 0.805 µM (active); with SR it was 2.33 µM (inactive); in the test with K562, 3.11 µM (inactive); with ACHN, 0.583 µM (active). Besides, the GI50 with SK-MEL-2 is 3.27 µM (inactive); with PC-3 it was 2.85 µM (inactive); with SF-268, 3.24 µM (inactive); in the test with HOP-62, 1.35 µM (inactive); with HT-29 it was 1.52 µM (inactive); with RPMI-8226, 0.711 µM (active). In addition, the GI50 in the test with A498 is 0.443 µM (active); with SK-MEL-28 it was 4.17 µM (inactive); in the test with SF-539 it was 2.06 µM (inactive); in the test on NCI-H23, 1.4 µM (inactive); in the test with MDA-N it was 3.64 µM (inactive); in the test on Hs-578T it was 12.2 µM (inactive). Further, the GI50 in the test on CAKI-1 is 2.39 µM (inactive).
In the case of `C#C[C@]1(O)CC[C@H]2[C@@H]3CCC4=C/C(=N\OCCN5CCCC5)CC[C@]4(C)[C@H]3CC[C@@]21C`, the GI50 with T47D was 16.1 µM (inactive); in the test on SK-MEL-5, 3.67 µM (inactive); in the test on SNB-75 it was 10.8 µM (inactive); with SR, 2.96 µM (inactive); with K562, 5.12 µM (inactive); with ACHN, 17 µM (inactive). For the same molecule, the GI50 in the test on SK-MEL-2 is 9.18 µM (inactive); with PC-3, 6.28 µM (inactive); with SF-268, 13.5 µM (inactive); with HOP-62, 10.9 µM (inactive); in the test with HT-29, 12.7 µM (inactive); in the test with RPMI-8226, 3.34 µM (inactive). Further, the GI50 is 18.7 µM (inactive) with A498; 14.9 µM (inactive) in the test with SK-MEL-28; 7.46 µM (inactive) in the test with SF-539; 12 µM (inactive) in the test with NCI-H23; 3.25 µM (inactive) with MDA-N; 6.25 µM (inactive) with Hs-578T. In addition, in the test with CAKI-1, the GI50 was 12.4 µM (inactive).
For the molecule `C#CCn1c(=O)c(Cl)cn(/C(=C/C(=O)OCC)C(=O)OCC)c1=O`, the GI50 was 2.34 µM (inactive) in the test on T47D; 16.9 µM (inactive) in the test with SK-MEL-5; 14.7 µM (inactive) with SNB-75; 2.32 µM (inactive) in the test with SR; 1.7 µM (inactive) in the test with K562; 2.03 µM (inactive) with ACHN. Besides, the GI50 with SK-MEL-2 was 17.4 µM (inactive); in the test with PC-3 it was 16.6 µM (inactive); in the test with SF-268 it was 27.9 µM (inactive); in the test with HOP-62, 20 µM (inactive); with HT-29, 18.4 µM (inactive); in the test with RPMI-8226, 1.91 µM (inactive). Also, the GI50 in the test on A498 is 22.9 µM (inactive); in the test on SK-MEL-28, 19 µM (inactive); in the test with SF-539, 6.11 µM (inactive); in the test on NCI-H23, 18.5 µM (inactive); in the test with MDA-N, 15.3 µM (inactive); in the test with Hs-578T, 42.9 µM (inactive). Besides, the GI50 with CAKI-1 is 2.99 µM (inactive).
In the case of `CC1(C)CC2=NOS3=C2C(=NO3)C1c1ccccn1` (centres undefined), the GI50 with T47D was > 100 µM (inactive); in the test with SK-MEL-5 it was 17.8 µM (inactive); in the test on SNB-75, > 100 µM (inactive); in the test with SR, 39.3 µM (inactive); in the test with K562, 24 µM (inactive); with ACHN, 74.8 µM (inactive). In addition, the GI50 with SK-MEL-2 was > 100 µM (inactive); in the test with PC-3, > 100 µM (inactive); with SF-268, > 100 µM (inactive); in the test on HOP-62 it was > 100 µM (inactive); with HT-29, 56.8 µM (inactive); in the test on RPMI-8226, > 100 µM (inactive). Further, the GI50 with A498 is > 100 µM (inactive); with SK-MEL-28, > 100 µM (inactive); in the test on SF-539, 64 µM (inactive); with NCI-H23, > 100 µM (inactive); in the test with MDA-N, 30.9 µM (inactive); in the test on Hs-578T, > 100 µM (inactive). In addition, the GI50 in the test with CAKI-1 is > 100 µM (inactive).
Turning to `CC(C)OC(=O)NNc1cccc(Cl)c1`, the GI50 was > 100 µM (inactive) in the test with T47D; > 100 µM (inactive) in the test with SK-MEL-5; > 100 µM (inactive) in the test on SNB-75; > 100 µM (inactive) in the test with SR; 47.3 µM (inactive) in the test on K562; > 100 µM (inactive) in the test with ACHN. In addition, the GI50 with SK-MEL-2 was 19.4 µM (inactive); in the test on PC-3, > 100 µM (inactive); in the test on SF-268 it was > 100 µM (inactive); with HOP-62, > 100 µM (inactive); with HT-29, > 100 µM (inactive); with RPMI-8226 it was 66.1 µM (inactive). Besides, the GI50 in the test on A498, with SK-MEL-28, with SF-539, in the test with NCI-H23, with MDA-N and with Hs-578T was > 100 µM (inactive) each time. For the same molecule, in the test on CAKI-1, the GI50 was 61.7 µM (inactive).
For the molecule `OCc1ccn2c1[C@@H](O)CC2`, the GI50 with T47D, with SK-MEL-5, in the test on SNB-75, in the test with SR, in the test on K562 and in the test on ACHN was > 100 µM (inactive) in each case. The GI50 in the test with SK-MEL-2, with PC-3, in the test with SF-268, with HOP-62, in the test with HT-29 and in the test with RPMI-8226 was > 100 µM (inactive) throughout. Moreover, the GI50 in the test with A498, with SK-MEL-28, in the test with SF-539, in the test on NCI-H23, with MDA-N and in the test on Hs-578T was > 100 µM (inactive) throughout. In addition, the GI50 in the test with CAKI-1 is > 100 µM (inactive).
As to `CCC1(O)C=CC(=O)C=C1`, the GI50 is 22.7 µM (inactive) with T47D; 31.8 µM (inactive) with SK-MEL-5; 33.3 µM (inactive) in the test on SNB-75; 36.8 µM (inactive) with SR; 39.5 µM (inactive) in the test with K562; 20.6 µM (inactive) in the test with ACHN. For the same molecule, the GI50 in the test with SK-MEL-2 was 31.1 µM (inactive); in the test on PC-3 it was 20.9 µM (inactive); with SF-268 it was 20.7 µM (inactive); with HOP-62 it was 27.7 µM (inactive); in the test on HT-29, 31.8 µM (inactive); in the test on RPMI-8226, 32.4 µM (inactive). Further, the GI50 in the test on A498 is 24.5 µM (inactive); in the test on SK-MEL-28, 23.3 µM (inactive); in the test with SF-539, 0.0422 µM (active); with NCI-H23, 24.9 µM (inactive); in the test on MDA-N, 28.8 µM (inactive); in the test on Hs-578T, 66.5 µM (inactive). Also, the GI50 in the test on CAKI-1 was 31.4 µM (inactive).
Turning to `CN(C)c1cccc(F)c1C(=O)NC(=O)Nc1ccc(Cl)cc1`, the GI50 in the test with T47D was 4.86 µM (inactive); with SK-MEL-5, 3.33 µM (inactive); in the test on SNB-75, 2.4 µM (inactive); in the test with SR, 0.218 µM (active); in the test on K562, 0.479 µM (active); in the test on ACHN, 4.79 µM (inactive). Besides, the GI50 in the test on SK-MEL-2 was 2.29 µM (inactive); in the test on PC-3, 2.83 µM (inactive); with SF-268, 12 µM (inactive); in the test with HOP-62, 5.2 µM (inactive); in the test with HT-29, 1.07 µM (active); in the test on RPMI-8226, 1.81 µM (inactive). Moreover, the GI50 with A498 is 11.5 µM (inactive); with SK-MEL-28, 17.6 µM (inactive); with SF-539, 3.15 µM (inactive); in the test on NCI-H23, 6.34 µM (inactive); with MDA-N, 0.142 µM (active); with Hs-578T it was 2.21 µM (inactive). In the test on CAKI-1, the GI50 was 3.78 µM (inactive).
